According to patent publication US20240300908A1, “CHIRAL 3-SULFINYL BENZOIC ACIDS” (BAYER AKTIENGESELLSCHAFT, priority 2021, published 2024):

Test: HPLC (H3PO4) log P determination
Type: physicochemical

SMILES	log P	chromatographic logP
C[S+]([O-])c1c(C(F)(F)F)ccc(C(=O)O)c1Cl (racemic) [Example 1 Step 1, 2-chloro-3-[(S,R)-methylsulfinyl]-4-(trifluoromethyl)benzoic Acid]	0.96	
C[S@+]([O-])c1c(C(F)(F)F)ccc(C(=O)O)c1Cl [Example 1, 2-chloro-3-[(S)-methylsulfinyl]-4-(trifluoromethyl)benzoic acid]		1
